The values below come from ChEMBL document CHEMBL2034833, “Synthesis of chalcone-amidobenzothiazole conjugates as antimitotic and apoptotic inducing agents” (Bioorg Med Chem, 2012).

Test [1] deals with A549. The experiment in a line: Cell cycle arrest in human A549 cells assessed as cell accumulation at subG1 phase at 2 uM after 48 hrs by propidium iodide staining based flow cytometry (reference value: […]). Format: functional. A general note: In flow cytometry, cells or beads pass a laser one at a time.
For test [2], the system named is A549. Kind of test: cells. The following applies: Homo sapiens, A549, 48 h.
Description: Cytotoxicity against human A549 cells after 48 hrs by MTT assay
Test [3] relates to A549. The experiment in a line: Induction of apoptosis in human A549 cells assessed as increase in caspase3 activity using AFC-conjugated Ac-DEVD as substrate at 2 uM after 48 hrs by fluorescence assay relative to control. In kind it is functional.
In a further test the test system is HT-29. The experiment in a line: Cytotoxicity against human HT-29 cells after 48 hrs by MTT assay. Format: functional, cell-based. To be noted: HT-29, 48 h.
The test system of test [4] is A549. The experiment in a line: Cell cycle arrest in human A549 cells assessed as cell accumulation at G0/G1 phase at 2 uM after 48 hrs by propidium iodide staining based flow cytometry (reference value: 70.15%). Format: functional.
In a further test the test system is MCF7. Kind of test: cells. The following applies: Homo sapiens, MCF7, 48 h.
The test system of the next test is A-375. The experiment in a line: Cytotoxicity against human A375 cells after 48 hrs by MTT assay. In kind it is functional, cell-based. To be noted: A-375, 48 h. For orientation: Tetrazolium dyes change colour on reduction, which living cells bring about.
Test [5] is described as follows: Inhibition of tubulin polymerization after 1 hr by fluorescence assay.
The next test deals with Tubulin (Homo sapiens) (UniProt P68371+Q9H4B7+P0DPH7+P68366+Q13509+Q71U36+P04350+Q3ZCM7+P07437+P68363+Q9BQE3+Q6PEY2+Q13885+Q9BVA1+Q9BUF5). The experiment in a line: Inhibition of tubulin polymerization in human A549 cells assessed as disrupted microtubule organization at 2 uM after 48 hrs by immunohistochemistry analysis. In kind it is cell-based.
The nature of test [6]: Inhibition of tubulin polymerization at 3 uM after 1 hr by fluorescence assay.
The subject of a further test is ACHN. The experiment in a line: Cytotoxicity against human ACHN cells after 48 hrs by MTT assay. In kind it is functional, cell-based.
For test [7], the system named is A549. Kind of test: Cell cycle arrest in human A549 cells assessed as cell accumulation at G2/M phase at 2 uM after 48 hrs by propidium iodide staining based flow cytometry (reference value: 23.75%). In kind it is functional.
For test [8], the system named is A549. The experiment in a line: Induction of apoptosis in human A549 cells assessed as early apoptotic cells at 2 uM after 48 hrs by annexin-V FITC/propidium iodide staining based FACS analysis. Format: functional.
In test [9] the test system is A549. Kind of test: Induction of apoptosis in human A549 cells assessed as viable cells at 2 uM after 48 hrs by annexin-V FITC/propidium iodide staining based FACS analysis. In kind it is functional. The following applies: A549, 48 h, read-out: Activity.
Test [10] concerns A549. Kind of test: Induction of apoptosis in human A549 cells assessed as late apoptotic cells at 2 uM after 48 hrs by annexin-V FITC/propidium iodide staining based FACS analysis. In kind it is functional.
Test [11] deals with A549. The experiment in a line: Induction of apoptosis in human A549 cells assessed as necrotic cells at 2 uM after 48 hrs by annexin-V FITC/propidium iodide staining based FACS analysis. In kind it is functional.

Molecules are shown by their SMILES. The source made the active and inactive calls. The rule behind the calls is not given here.

Description for MCF7: Cytotoxicity against human MCF7 cells after 48 hrs by MTT assay

What is called IC50 is the concentration at which inhibition is half-maximal. What is called inhibition is the relative decrease from the control value, in per cent. `COc1ccc(/C=C/C(=O)c2cc(OC)c(OC)c(OC)c2)cc1O`: the values for the Activity with A549 [1], in the test on A549 [4] and in the test with A549 [7] were 12.34%, 18.59% and 55.47%, respectively. For the same compound, the IC50 came out at 760 nM in the test with A549 [2]; 1900 nM in the test on HT-29 (read-out: IC50); 120 nM in the test with MCF7; 190 nM in the test with A-375; 3.7 µM in test [5]; 1620 nM in the test on ACHN. In the test with A549 [3], the “fold change (FC)” value came to 6. Besides, the inhibition entry on Tubulin (Homo sapiens) is “Active”. For the same compound, the inhibition in [6] stood at 62.6%.
Take `COC(=O)Nc1nc2cc(C(=O)c3cccs3)ccc2[nH]1`: the inhibition in test [6] turned out to be 59.6%.
Consider `COc1ccc(/C=C/C(=O)c2cc(OC)c(OC)c(OC)c2)cc1OCC(=O)Nc1nc2c(C)cccc2s1`, for which the IC50 amounted to 5100 nM with A549 [2]; 6100 nM in the test on HT-29 (read-out: IC50); 2500 nM in the test on MCF7; 2800 nM with A-375; 3800 nM with ACHN.
In the same order, the values of `CCOc1ccc2nc(NC(=O)COc3cc(/C=C/C(=O)c4cc(OC)c(OC)c(OC)c4)ccc3OC)sc2c1` are 8100 nM, 2400 nM, 4200 nM, 5800 nM and 2600 nM.
On to `COc1ccc(/C=C/C(=O)c2cc(OC)c(OC)c(OC)c2)cc1OCC(=O)Nc1nc2ccccc2s1`, for which the inhibition entry at Tubulin (Homo sapiens) is “Active”.
Regarding `COc1ccc(/C=C\c2cc(OC)c(OC)c(OC)c2)cc1O` [COMBRETASTATIN A4], the Activity with A549 [1] was 8.44%; with A549 [8], 0.3%; with A549 [4], 13.98%; in the test on A549 [10] it was 23.3%; with A549 [11] it was 22%; with A549 [7], 63.75%. The IC50 in the test on A549 [2] was 110 nM; with HT-29, 930 nM; in the test with MCF7, 180 nM; in the test with A-375 it was 210 nM; in the test on ACHN, 170 nM. Also, the viability at 2 µM in the test on A549 [9] came out at 54.4%. Besides, the inhibition in test [6] came out at 69.7%.
